Target: CDK4 (Homo sapiens, UniProt P11802+Q16531)
Assay: HiBiT detection of HiBiT-tagged CDK4 protein level in MCF7 cells, 16 hours (Table 8)
Format: cell-based
Parameters: expressed in transfected cells; host or cells: MCF7
Details: MCF7 cells stably expressing HiBiT tagged target proteins; for activity at 0.01 µM: 10 nM, read-out: % CDK4 Relative Level (10 nM); for activity at 0.1 µM: 100 nM, read-out: % CDK4 Relative Level (100 nM)
Protocol: HiBiT detection system quantitatively measures total amounts of HiBiT-tagged proteins using a luminescent based method. MCF7 cells stably expressing HiBiT tagged target proteins were treated with heterobifunctional compounds at indicated concentrations for 16 hours, then lysed with Nano-Glo HiBiT Lytic detection reagents.

Chain of CDK4 (P11802 whole entry): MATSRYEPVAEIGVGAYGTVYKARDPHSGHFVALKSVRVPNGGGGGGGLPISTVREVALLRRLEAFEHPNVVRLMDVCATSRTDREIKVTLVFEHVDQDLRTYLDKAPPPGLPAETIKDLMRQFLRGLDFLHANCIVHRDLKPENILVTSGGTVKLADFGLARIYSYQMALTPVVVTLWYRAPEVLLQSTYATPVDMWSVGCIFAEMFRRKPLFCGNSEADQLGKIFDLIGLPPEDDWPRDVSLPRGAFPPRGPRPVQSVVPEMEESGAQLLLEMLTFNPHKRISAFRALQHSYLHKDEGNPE
Chain of CDK4 (P24385 whole entry partner): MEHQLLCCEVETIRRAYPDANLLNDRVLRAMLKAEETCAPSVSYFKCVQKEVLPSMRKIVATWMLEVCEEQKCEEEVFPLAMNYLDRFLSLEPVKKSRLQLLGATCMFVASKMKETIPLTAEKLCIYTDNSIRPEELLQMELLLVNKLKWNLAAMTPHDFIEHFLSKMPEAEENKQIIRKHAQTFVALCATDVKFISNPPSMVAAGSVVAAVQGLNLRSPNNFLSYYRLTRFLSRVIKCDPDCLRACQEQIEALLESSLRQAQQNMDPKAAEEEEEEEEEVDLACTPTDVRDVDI
Chain of CDK4 (Q16531 2-1140 limits assumed): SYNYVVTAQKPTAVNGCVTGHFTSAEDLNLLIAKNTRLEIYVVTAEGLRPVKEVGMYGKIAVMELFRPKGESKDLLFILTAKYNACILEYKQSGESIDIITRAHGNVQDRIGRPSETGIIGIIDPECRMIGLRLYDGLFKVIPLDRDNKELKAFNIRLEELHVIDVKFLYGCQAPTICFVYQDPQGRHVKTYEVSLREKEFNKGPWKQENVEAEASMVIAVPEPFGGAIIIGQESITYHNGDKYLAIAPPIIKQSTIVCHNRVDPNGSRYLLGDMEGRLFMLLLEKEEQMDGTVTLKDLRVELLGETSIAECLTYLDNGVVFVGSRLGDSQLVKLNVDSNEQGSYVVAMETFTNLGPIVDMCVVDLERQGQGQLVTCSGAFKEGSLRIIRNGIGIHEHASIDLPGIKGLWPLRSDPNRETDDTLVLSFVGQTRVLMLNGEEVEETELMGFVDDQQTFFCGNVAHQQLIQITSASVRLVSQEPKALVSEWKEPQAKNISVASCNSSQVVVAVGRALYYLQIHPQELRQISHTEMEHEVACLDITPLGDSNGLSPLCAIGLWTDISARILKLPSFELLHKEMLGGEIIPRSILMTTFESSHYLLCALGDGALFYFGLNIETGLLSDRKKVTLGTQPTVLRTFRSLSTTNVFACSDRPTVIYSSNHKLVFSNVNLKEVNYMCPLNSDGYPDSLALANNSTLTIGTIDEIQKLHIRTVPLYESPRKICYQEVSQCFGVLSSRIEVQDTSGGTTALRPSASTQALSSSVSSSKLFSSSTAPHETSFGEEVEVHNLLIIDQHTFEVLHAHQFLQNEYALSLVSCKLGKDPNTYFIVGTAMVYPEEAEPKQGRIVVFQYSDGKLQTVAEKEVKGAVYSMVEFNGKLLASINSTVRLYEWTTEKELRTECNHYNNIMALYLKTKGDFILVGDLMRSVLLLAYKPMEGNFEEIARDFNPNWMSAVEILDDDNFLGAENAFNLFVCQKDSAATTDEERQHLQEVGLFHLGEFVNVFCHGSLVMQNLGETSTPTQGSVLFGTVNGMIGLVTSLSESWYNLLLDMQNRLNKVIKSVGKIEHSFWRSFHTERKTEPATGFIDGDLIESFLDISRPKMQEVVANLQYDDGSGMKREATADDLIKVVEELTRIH

activity at 0.01 µM | activity at 0.1 µM | Structure (SMILES)
> 85% | > 85% | CNc1ccc(C(=O)Nc2ccc(N(C)C)nn2)c(NCCC(=O)NC2CCC(Nc3ncc4ccc(=O)n(C5CCCC5)c4n3)CC2)n1 (stereo not drawn) [CPD-666, 2-((3-((4-((8-cyclopentyl-7-oxo-7,8-dihydropyrido[2,3-d]pyrimidin-2-yl)amino)cyclohexyl)amino)-3-oxopropyl)amino)-N-(6-(dimethylamino)pyridazin-3-yl)-6-(methylamino)nicotinamide]
> 85% | > 85% | CNc1ccc(C(=O)Nc2ccc(N(C)C)nn2)c(NCCCCC(=O)NC2CCC(Nc3ncc4ccc(=O)n(C5CCCC5)c4n3)CC2)n1 (stereo not drawn) [CPD-668, 2-((5-((4-((8-cyclopentyl-7-oxo-7,8-dihydropyrido[2,3-d]pyrimidin-2-yl)amino)cyclohexyl)amino)-5-oxopentyl)amino)-N-(6-(dimethylamino)pyridazin-3-yl)-6-(methylamino)nicotinamide]
> 85% | > 85% | CNc1ccc(C(=O)Nc2ccc(N(C)C)nn2)c(NCCOCCC(=O)NC2CCC(Nc3ncc4ccc(=O)n(C5CCCC5)c4n3)CC2)n1 (stereo not drawn) [CPD-672, 2-((2-(3-((4-((8-cyclopentyl-7-oxo-7,8-dihydropyrido[2,3-d]pyrimidin-2-yl)amino)cyclohexyl)amino)-3-oxopropoxy)ethyl)amino)-N-(6-(dimethylamino)pyridazin-3-yl)-6-(methylamino)nicotinamide]
> 85% | > 85% | CNc1ccc(C(=O)Nc2ccc(N(C)C)nn2)c(NCCC(=O)NC2CCC3(CC2)CC(Nc2ncc4ccc(=O)n(C5CCCC5)c4n2)C3)n1 (stereo not drawn) [CPD-673, 2-((3-((2-((8-cyclopentyl-7-oxo-7,8-dihydropyrido[2,3-d]pyrimidin-2-yl)amino)spiro[3.5]nonan-7-yl)amino)-3-oxopropyl)amino)-N-(6-(dimethylamino)pyridazin-3-yl)-6-(methylamino)nicotinamide]
> 85% | > 85% | CNc1ccc(C(=O)Nc2ccc(N(C)C)nn2)c(NCCCC(=O)NC2CCC3(CC2)CC(Nc2ncc4ccc(=O)n(C5CCCC5)c4n2)C3)n1 (stereo not drawn) [CPD-674, 2-((4-((2-((8-cyclopentyl-7-oxo-7,8-dihydropyrido[2,3-d]pyrimidin-2-yl)amino)spiro[3.5]nonan-7-yl)amino)-4-oxobutyl)amino)-N-(6-(dimethylamino)pyridazin-3-yl)-6-(methylamino)nicotinamide]
> 85% | > 85% | CNc1ccc(C(=O)Nc2ccc(N(C)C)nn2)c(NCCCCCC(=O)NC2CCC3(CC2)CC(Nc2ncc4ccc(=O)n(C5CCCC5)c4n2)C3)n1 (stereo not drawn) [CPD-676, 2-((6-((2-((8-cyclopentyl-7-oxo-7,8-dihydropyrido[2,3-d]pyrimidin-2-yl)amino)spiro[3.5]nonan-7-yl)amino)-6-oxohexyl)amino)-N-(6-(dimethylamino)pyridazin-3-yl)-6-(methylamino)nicotinamide]

Second part, the molecule before the results:

Structure (SMILES) | activity at 0.01 µM | activity at 0.1 µM
CNc1ccc(C(=O)Nc2ccc(N(C)C)nn2)c(NCCCCCCNC(=O)CN2CCN(c3ccc(Nc4ncc(F)c(-c5cc(F)c6nc(C)n(C(C)C)c6c5)n4)nc3)CC2)n1 [CPD-662, N-(6-(dimethylamino)pyridazin-3-yl)-2-((6-(2-(4-(6-((5-fluoro-4-(4-fluoro-1-isopropyl-2-methyl-1H-benzo[d]imidazol-6-yl)pyrimidin-2-yl)amino)pyridin-3-yl)piperazin-1-yl)acetamido)hexyl)amino)-6-(methylamino)nicotinamide] | > 85% | > 85%
CNc1ccc(C(=O)Nc2ccc(N(C)C)nn2)c(NCCCCCCCNC(=O)CN2CCN(c3ccc(Nc4ncc(F)c(-c5cc(F)c6nc(C)n(C(C)C)c6c5)n4)nc3)CC2)n1 [CPD-663, N-(6-(dimethylamino)pyridazin-3-yl)-2-((7-(2-(4-(6-((5-fluoro-4-(4-fluoro-1-isopropyl-2-methyl-1H-benzo[d]imidazol-6-yl)pyrimidin-2-yl)amino)pyridin-3-yl)piperazin-1-yl)acetamido)heptyl)amino)-6-(methylamino)nicotinamide] | > 85% | 55 to 85%
CNc1ccc(C(=O)Nc2ccc(N(C)C)nn2)c(NCCCCCCCCNC(=O)CN2CCN(c3ccc(Nc4ncc(F)c(-c5cc(F)c6nc(C)n(C(C)C)c6c5)n4)nc3)CC2)n1 [CPD-664, N-(6-(dimethylamino)pyridazin-3-yl)-2-((8-(2-(4-(6-((5-fluoro-4-(4-fluoro-1-isopropyl-2-methyl-1H-benzo[d]imidazol-6-yl)pyrimidin-2-yl)amino)pyridin-3-yl)piperazin-1-yl)acetamido)octyl)amino)-6-(methylamino)nicotinamide] | > 85% | > 85%
CNc1ccc(C(=O)Nc2ccc(N(C)C)nn2)c(NCCOCCNC(=O)CN2CCN(c3ccc(Nc4ncc(F)c(-c5cc(F)c6nc(C)n(C(C)C)c6c5)n4)nc3)CC2)n1 [CPD-665, N-(6-(dimethylamino)pyridazin-3-yl)-2-((2-(2-(2-(4-(6-((5-fluoro-4-(4-fluoro-1-isopropyl-2-methyl-1H-benzo[d]imidazol-6-yl)pyrimidin-2-yl)amino)pyridin-3-yl)piperazin-1-yl)acetamido)ethoxy)ethyl)amino)-6-(methylamino)nicotinamide] | 55 to 85% | > 85%
CNc1ccc(C(=O)Nc2ccc(N(C)C)nn2)c(NCCCC(=O)NC2CCC(Nc3ncc4ccc(=O)n(C5CCCC5)c4n3)CC2)n1 (stereo not drawn) [CPD-667, 2-((4-((4-((8-cyclopentyl-7-oxo-7,8-dihydropyrido[2,3-d]pyrimidin-2-yl)amino)cyclohexyl)amino)-4-oxobutyl)amino)-N-(6-(dimethylamino)pyridazin-3-yl)-6-(methylamino)nicotinamide] | > 85% | > 85%
CNc1ccc(C(=O)Nc2ccc(N(C)C)nn2)c(NCCCCCC(=O)NC2CCC(Nc3ncc4ccc(=O)n(C5CCCC5)c4n3)CC2)n1 (stereo not drawn) [CPD-669, 2-((6-((4-((8-cyclopentyl-7-oxo-7,8-dihydropyrido[2,3-d]pyrimidin-2-yl)amino)cyclohexyl)amino)-6-oxohexyl)amino)-N-(6-(dimethylamino)pyridazin-3-yl)-6-(methylamino)nicotinamide] | > 85% | > 85%
CNc1ccc(C(=O)Nc2ccc(N(C)C)nn2)c(NCCCCCCC(=O)NC2CCC(Nc3ncc4ccc(=O)n(C5CCCC5)c4n3)CC2)n1 (stereo not drawn) [CPD-670, 2-((7-((4-((8-cyclopentyl-7-oxo-7,8-dihydropyrido[2,3-d]pyrimidin-2-yl)amino)cyclohexyl)amino)-7-oxoheptyl)amino)-N-(6-(dimethylamino)pyridazin-3-yl)-6-(methylamino)nicotinamide] | > 85% | > 85%
CNc1ccc(C(=O)Nc2ccc(N(C)C)nn2)c(NCCCCCCCC(=O)NC2CCC(Nc3ncc4ccc(=O)n(C5CCCC5)c4n3)CC2)n1 (stereo not drawn) [CPD-671, 2-((8-((4-((8-cyclopentyl-7-oxo-7,8-dihydropyrido[2,3-d]pyrimidin-2-yl)amino)cyclohexyl)amino)-8-oxooctyl)amino)-N-(6-(dimethylamino)pyridazin-3-yl)-6-(methylamino)nicotinamide] | > 85% | > 85%
CNc1ccc(C(=O)Nc2ccc(N(C)C)nn2)c(NCCCCC(=O)NC2CCC3(CC2)CC(Nc2ncc4ccc(=O)n(C5CCCC5)c4n2)C3)n1 (stereo not drawn) [CPD-675, 2-((5-((2-((8-cyclopentyl-7-oxo-7,8-dihydropyrido[2,3-d]pyrimidin-2-yl)amino)spiro[3.5]nonan-7-yl)amino)-5-oxopentyl)amino)-N-(6-(dimethylamino)pyridazin-3-yl)-6-(methylamino)nicotinamide] | > 85% | > 85%
CNc1ccc(C(=O)Nc2ccc(N(C)C)nn2)c(NCCCCCCC(=O)NC2CCC3(CC2)CC(Nc2ncc4ccc(=O)n(C5CCCC5)c4n2)C3)n1 (stereo not drawn) [CPD-677, 2-((7-((2-((8-cyclopentyl-7-oxo-7,8-dihydropyrido[2,3-d]pyrimidin-2-yl)amino)spiro[3.5]nonan-7-yl)amino)-7-oxoheptyl)amino)-N-(6-(dimethylamino)pyridazin-3-yl)-6-(methylamino)nicotinamide] | > 85% | > 85%
CNc1ccc(C(=O)Nc2ccc(N(C)C)nn2)c(NCCCCCCCC(=O)NC2CCC3(CC2)CC(Nc2ncc4ccc(=O)n(C5CCCC5)c4n2)C3)n1 (stereo not drawn) [CPD-678, 2-((8-((2-((8-cyclopentyl-7-oxo-7,8-dihydropyrido[2,3-d]pyrimidin-2-yl)amino)spiro[3.5]nonan-7-yl)amino)-8-oxooctyl)amino)-N-(6-(dimethylamino)pyridazin-3-yl)-6-(methylamino)nicotinamide] | > 85% | > 85%
CNc1ccc(C(=O)Nc2ccc(N(C)C)nn2)c(NCCOCCC(=O)NC2CCC3(CC2)CC(Nc2ncc4ccc(=O)n(C5CCCC5)c4n2)C3)n1 (stereo not drawn) [CPD-679, 2-((2-(3-((2-((8-cyclopentyl-7-oxo-7,8-dihydropyrido[2,3-d]pyrimidin-2-yl)amino)spiro[3.5]nonan-7-yl)amino)-3-oxopropoxy)ethyl)amino)-N-(6-(dimethylamino)pyridazin-3-yl)-6-(methylamino)nicotinamide] | > 85% | > 85%

Source: patent US20260297081A1, “COMPOUNDS AND METHODS OF TREATING CANCERS” (Cullgen Inc., priority 2023, published 2026)
